Data on five compounds can be found in patent US4783480A, “6-keto-prostaglandin E1 derivatives” (Ono Pharmaceutical Co., Ltd., priority 1986, dated 1988).

One data set relates to blood pressure. The data set is described as follows: hypotensive activity in the anesthetized dog, intravenous administration. The format is in vivo. The conditions noted are these: relative to PGE1 = 1. The procedure:
(ii) hypotensive activity in dogs and
(ii) Hypotensive activity was measured in the anesthetized dog by intravenous administration, and as active control, PGE1 was used.

Data set [1] can be described thus: toxicity (LD50) by intravenous administration in mice. The following applies: mouse, in vivo.
The test system of data set [2] is carbon tetrachloride-induced acute liver damage (plasma GOT and GPT). The data set is described as follows: cytoprotective activity in carbon tetrachloride-induced acute liver damage in rats. The format is in vivo, rat. The conditions noted are these: for minimal effective dose: Rattus norvegicus, sc, rats, dosed three times (0, 6, 12 hrs), read-out: Inhibiting activity of CCl4 induced liver damage, minimum effective dose; for activity in the inhibition of liver damage induced by carbon tetrachloride compared with compounds (d) and (e): words. The procedure: (i) cytoprotective activity in carbon tetrachloride-induced acute liver damage in rats.
(i) Inhibitory activity on liver damage induced by carbon tetrachloride.
A solution of carbon tetrachloride (2000 μl) dissolved in olive oil (10 ml) was administered to Wistar male rates (body weight 190-220 g) at a rate of 2000 μl/kg animal body weight by intraperitoneal injection.
A solution of a compound of the present invention or of one of the comparison compounds in olive oil (2 ml/kg animal body weight) was administered three times, at the same time as, and then 6 hrs and 12 hrs after, the dosage of carbon tetrachloride, and blood was collected twice after 24 hrs and 48 hrs after the first dosage. The blood was centrifuged and plasma GOT (glutamic oxalacetic transaminase) activity and plasma GPT (glutamic pyruvic transaminase) activity were measured.

The test system of data set [3] is blood platelet aggregation induced by ADP. The data set can be described thus: inhibitory activity of blood platelet aggregation induced by ADP in rats. Format: cell-based, rat. The following applies: relative to PGE1 = 1. The text has this:
(iii) inhibitory activity of blood platelet aggregation induced by ADP in rats. The experimental methods are described hereinafter.
(iii) The concentrations required to inhibit blood platelet aggregation induced in rats by ADP (adenosine diphosphate) are shown relative to PGE1.

For the compound `CCCC[C@H]1CC[C@H]([C@H](O)/C=C/[C@H]2[C@H](O)CC(=O)[C@@H]2CC(=O)CCCCC(=O)N[C@@H](CC(C)C)C(=O)O)C1` [1(b), N-[(13E)-(11α,15α,16S,18S)-6,9-dioxo-11,15-dihydroxy-16,18-ethano-20-ethylprost-13-en-1-oyl]-L-leucine], in the data set with blood pressure, the “Hypotensive activity (PGE1 = 1)” value was determined as 0.01. In data set [1], this compound had a median lethal dose (LD50) of 30 mg/kg. In data set [2], the minimal effective dose was less than 0.01 mg/kg; the “activity in the inhibition of liver damage induced by carbon tetrachloride compared with compounds (d) and (e)” value is “almost the same activity”. Further, in data set [3], the “Inhibiting activity of blood platelet aggregation (PGE1 = 1)” value (shortened to “Inhibiting activity”) is reported as 0.01.

Consider `CCCC[C@H]1CC[C@H]([C@H](O)/C=C/[C@H]2[C@H](O)CC(=O)[C@@H]2CC(=O)CCCCC(=O)O)C1` [(e), reference compound], for which the “Hypotensive activity (PGE1 = 1)” value in the data set with blood pressure amounted to 24.5. The minimal effective dose in data set [2] stood at 0.005 mg/kg. Moreover, the “Inhibiting activity” value in data set [3] is 506.

On to `CCCCC(C)C[C@H](O)/C=C/[C@H]1[C@H](O)CC(=O)[C@@H]1CC(=O)CCCCC(=O)O` (some centres unmarked) [(d), reference compound], for which the “Hypotensive activity (PGE1 = 1)” value with blood pressure is on record as 21. Further, the minimal effective dose in data set [2] stood at 0.03 mg/kg. In addition, the “Inhibiting activity” value in data set [3] is on record as 68.

`CCCC[C@H]1CC[C@H]([C@H](O)/C=C/[C@H]2[C@H](O)CC(=O)[C@@H]2CC(=O)CCCCC(=O)N[C@@H](Cc2ccccc2)C(=O)O)C1` [Example 1, N-[(13E)-(11α,15α,16S,18S)-6,9-dioxo-11,15-dihydroxy-16,18-ethano-20-ethylprost-13-en-1-oyl]-L-phenylalanine]: the “Hypotensive activity (PGE1 = 1)” value with blood pressure is 0.03. This compound also came in with an LD50 in data set [1] of 22 mg/kg. Moreover, in data set [2], the minimal effective dose was less than 0.01 mg/kg; the “activity in the inhibition of liver damage induced by carbon tetrachloride compared with compounds (d) and (e)” value was “almost the same activity”. For the same compound, the “Inhibiting activity” value in data set [3] is listed as 0.01.

As for `CCCC[C@H](C)C[C@H](O)/C=C/[C@H]1[C@H](O)CC(=O)[C@@H]1CC(=O)CCCCC(=O)N[C@@H](Cc1ccccc1)C(=O)OC` [Example 2(a), N[(13E)-(11α,15α,17S)6,9-dioxo-11,15-dihydroxy-17,20-dimethylprost-13-en-1-oyl]-L-phenylalanine methyl ester], the “Hypotensive activity (PGE1 = 1)” value in the data set with blood pressure stood at 0.014. In data set [2], the minimal effective dose worked out at 0.03 mg/kg; the “activity in the inhibition of liver damage induced by carbon tetrachloride compared with compounds (d) and (e)” value was “almost the same activity”. Further, the “Inhibiting activity” value in data set [3] was found to be 0.0053.

Usually LD50 stands for the dose at which mortality reaches 50%. Read a high LD50 as lower toxicity.
